14 compounds from patent US8017585B2, “CXCR4 antagonist and use thereof” (priority 2002, dated 2011) can be followed below.

Numbered stars: 1 amine (or outer) side, 2 acyl side, 3 side chain; on linkers, the order of the positions; unused ones are H or OH. Bridge positions count the residues as written; N and C are the ends. Square brackets hold non-standard residues; d marks the D form. Peptide text beside a SMILES is read from it. * marks the point of attachment. X4 = CN(C)C(=N[C@@H](CCCNC(=N)N)C(=O)*)N(C)C; Pentanoyl(5-guanidino) = NC(N)=NCCCCC(=O)*; 2Nal = N[C@@H](Cc1ccc2ccccc2c1)C(=O)O; X1 = N=C(N)NCCC[C@H](NC(=N)N)C(=O)*; Glutaryl = O=C(CCCC(=O)[*:2])[*:1]; Benzoyl(4-F) = O=C(c1ccc(F)cc1)*; dCit = NC(=O)NCCC[C@@H](N)C(=O)O; Cit = NC(=O)NCCC[C@H](N)C(=O)O; Suc = O=C(CCC(=O)[*:2])[*:1]; X5 = O=C(c1ccccc1F)*; Ava = NCCCCC(=O)O

A word on the IC50: it is the midpoint of a concentration-inhibition curve.

T1 sequence (P61073 whole entry): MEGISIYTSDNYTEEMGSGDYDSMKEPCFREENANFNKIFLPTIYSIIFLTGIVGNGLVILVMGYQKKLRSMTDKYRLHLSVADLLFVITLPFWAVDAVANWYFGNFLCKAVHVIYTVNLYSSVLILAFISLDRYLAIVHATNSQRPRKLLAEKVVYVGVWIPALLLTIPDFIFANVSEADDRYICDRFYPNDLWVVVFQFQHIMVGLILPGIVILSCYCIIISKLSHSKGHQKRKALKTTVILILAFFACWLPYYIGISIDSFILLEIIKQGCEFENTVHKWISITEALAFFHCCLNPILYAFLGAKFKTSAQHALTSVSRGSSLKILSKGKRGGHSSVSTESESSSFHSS

The assay has as its target T1, CXCR4 receptor (Homo sapiens, UniProt P61073).
T1 construct: 50 μL of Jurkat human T-cell leukemia cells (6×10^6 cells/mL) suspended in buffer; endogenous in cells; host or cells: Jurkat human T-cell leukemia cells
Kind of assay: Inhibition of 125I-CXCL12 binding to CXCR4 receptor on Jurkat cells. Conditions: Table 1, 125I-CXCL12, 1 hour at room temperature, compounds as acetate salt, read-out: IC50 (nM), inhibitory activity against CXCL12 binding to CXCR4 receptor.
Experimental: After reaction, suction was made toward the reaction solution by 96 well GF/C filter plate, and each well's radioactivity was measured by top count. As the radioactivity index of 100% when the test compound was not added, and 0% when 100 nM of non-radioisotope-labeled CXCL12 was added, the inhibitory activity of each test compound was measured.
In the case of `N=C(N)NCCC[C@H](NC(=O)[C@@H]1CSSC[C@H](NC(=O)[C@H](Cc2ccc3ccccc3c2)NC(=O)[C@H](CCC(=O)O)NC(=O)[C@@H](N)CCCNC(=N)N)C(=O)N[C@@H](Cc2ccc(O)cc2)C(=O)N[C@@H](CCCNC(=N)N)C(=O)N[C@@H](CCCCN)C(=O)N[C@H](CCCCN)C(=O)N2CCC[C@H]2C(=O)N[C@@H](Cc2ccc(O)cc2)C(=O)N[C@@H](CCCNC(=N)N)C(=O)N[C@@H](CCCNC(N)=O)C(=O)N1)C(=O)O` [TE14002, H-Arg-Glu-Nal-Cys-Tyr-Arg-Lys-DLys-Pro-Tyr-Arg-Cit-Cys-Arg-OH] (H-RE[2Nal]CYRK[dK]PYR[Cit]CR-OH; disulfide 4-13), the IC50 is 680 nM. As to `N=C(N)NCCC[C@H](NC(=O)[C@@H]1CSSC[C@H](NC(=O)[C@H](Cc2ccc3ccccc3c2)NC(=O)[C@H](CCCNC(=N)N)NC(=O)[C@@H](N)CCCNC(=N)N)C(=O)N[C@@H](Cc2ccc(O)cc2)C(=O)N[C@@H](CCCNC(N)=O)C(=O)N[C@@H](CCCCN)C(=O)N[C@H](CCC(=O)O)C(=O)N2CCC[C@H]2C(=O)N[C@@H](Cc2ccc(O)cc2)C(=O)N[C@@H](CCCNC(=N)N)C(=O)N[C@@H](CCCNC(N)=O)C(=O)N1)C(N)=O` [TE14011, H-Arg-Arg-Nal-Cys-Tyr-Cit-Lys-DGlu-Pro-Tyr-Arg-Cit-Cys-Arg-NH2] (H-RR[2Nal]CY[Cit]K[dE]PYR[Cit]CR-NH2; disulfide 4-13), the concentration for half-maximal inhibition (IC50) came out at 2.9 nM. As for `N=C(N)NCCC[C@H](NC(=O)[C@@H]1CSSC[C@H](NC(=O)[C@H](Cc2ccc3ccccc3c2)NC(=O)[C@H](CCCNC(=N)N)NC(=O)[C@@H](N)CCCNC(=N)N)C(=O)N[C@@H](Cc2ccc(O)cc2)C(=O)N[C@H](CCC(=O)O)C(=O)N[C@@H](CCCCN)C(=O)N[C@H](CCCNC(N)=O)C(=O)N2CCC[C@H]2C(=O)N[C@@H](Cc2ccc(O)cc2)C(=O)N[C@@H](CCCNC(=N)N)C(=O)N[C@@H](CCCNC(N)=O)C(=O)N1)C(N)=O` [TE14012, H-Arg-Arg-Nal-Cys-Tyr-DGlu-Lys-DCit-Pro-Tyr-Arg-Cit-Cys-Arg-NH2] (H-RR[2Nal]CY[dE]K[dCit]PYR[Cit]CR-NH2; disulfide 4-13), the IC50 turned out to be 5.4 nM. With `N=C(N)NCCC[C@H](NC(=O)[C@@H]1CSSC[C@H](NC(=O)[C@H](Cc2ccc3ccccc3c2)NC(=O)[C@H](CCCNC(=N)N)NC(=O)[C@@H](N)CCCNC(=N)N)C(=O)N[C@@H](Cc2ccc(O)cc2)C(=O)N[C@H](CCC(=O)O)C(=O)N[C@@H](CCCCN)C(=O)N[C@H](CCC(=O)O)C(=O)N2CCC[C@H]2C(=O)N[C@@H](Cc2ccc(O)cc2)C(=O)N[C@@H](CCCNC(=N)N)C(=O)N[C@@H](CCCNC(N)=O)C(=O)N1)C(N)=O` [TE14013, H-Arg-Arg-Nal-Cys-Tyr-DGlu-Lys-DGlu-Pro-Tyr-Arg-Cit-Cys-Arg-NH2] (H-RR[2Nal]CY[dE]K[dE]PYR[Cit]CR-NH2; disulfide 4-13), the IC50 worked out at 9.3 nM.

For `CC(=O)N[C@@H](CCCNC(=N)N)C(=O)N[C@@H](CCCNC(=N)N)C(=O)N[C@@H](Cc1ccc2ccccc2c1)C(=O)N[C@H]1CSSC[C@@H](C(=O)N[C@@H](CCCNC(=N)N)C(N)=O)NC(=O)[C@H](CCCNC(N)=O)NC(=O)[C@H](CCCNC(=N)N)NC(=O)[C@H](Cc2ccc(O)cc2)NC(=O)[C@@H]2CCCN2C(=O)[C@@H](CCC(=O)O)NC(=O)[C@H](CCCCN)NC(=O)[C@H](CCCNC(N)=O)NC(=O)[C@H](Cc2ccc(O)cc2)NC1=O` [TF1, Ac-Arg-Arg-Nal-Cys-Tyr-Cit-Lys-DGlu-Pro-Tyr-Arg-Cit-Cys-Arg-NH2] (Ac-RR[2Nal]CY[Cit]K[dE]PYR[Cit]CR-NH2; disulfide 4-13), the half-maximal inhibitory concentration (IC50) worked out at 11 nM. In the case of `N=C(N)NCCC[C@H](NC(=O)[C@@H]1CSSC[C@H](NC(=O)[C@H](Cc2ccc3ccccc3c2)NC(=O)[C@H](CCCNC(=N)N)NC(=O)[C@H](CCCNC(=N)N)NC(=N)N)C(=O)N[C@@H](Cc2ccc(O)cc2)C(=O)N[C@@H](CCCNC(N)=O)C(=O)N[C@@H](CCCCN)C(=O)N[C@H](CCC(=O)O)C(=O)N2CCC[C@H]2C(=O)N[C@@H](Cc2ccc(O)cc2)C(=O)N[C@@H](CCCNC(=N)N)C(=O)N[C@@H](CCCNC(N)=O)C(=O)N1)C(N)=O` [TF2, guanyl-Arg-Arg-Nal-Cys-Tyr-Cit-Lys-DGlu-Pro-Tyr-Arg-Cit-Cys-Arg-NH2] (X1-R[2Nal]CY[Cit]K[dE]PYR[Cit]CR-NH2; disulfide 3-12), the IC50 was 3.3 nM. For `CN(C)C(=N[C@@H](CCCNC(=N)N)C(=O)N[C@@H](CCCNC(=N)N)C(=O)N[C@@H](Cc1ccc2ccccc2c1)C(=O)N[C@H]1CSSC[C@@H](C(=O)N[C@@H](CCCNC(=N)N)C(N)=O)NC(=O)[C@H](CCCNC(N)=O)NC(=O)[C@H](CCCNC(=N)N)NC(=O)[C@H](Cc2ccc(O)cc2)NC(=O)[C@@H]2CCCN2C(=O)[C@@H](CCC(=O)O)NC(=O)[C@H](CCCCN)NC(=O)[C@H](CCCNC(N)=O)NC(=O)[C@H](Cc2ccc(O)cc2)NC1=O)N(C)C` [TF3, TMguanyl-Arg-Arg-Nal-Cys-Tyr-Cit-Lys-DGlu-Pro-Tyr-Arg-Cit-Cys-Arg-NH2] (X4-R[2Nal]CY[Cit]K[dE]PYR[Cit]CR-NH2; disulfide 3-12) the value was 9.6 nM; for `N=C(N)NCCC[C@H](NC(=O)[C@@H]1CSSC[C@H](NC(=O)[C@H](Cc2ccc3ccccc3c2)NC(=O)[C@H](CCCNC(=N)N)NC(=O)[C@H](CCCNC(=N)N)NC(=O)c2ccc(F)cc2)C(=O)N[C@@H](Cc2ccc(O)cc2)C(=O)N[C@@H](CCCNC(N)=O)C(=O)N[C@@H](CCCCN)C(=O)N[C@H](CCC(=O)O)C(=O)N2CCC[C@H]2C(=O)N[C@@H](Cc2ccc(O)cc2)C(=O)N[C@@H](CCCNC(=N)N)C(=O)N[C@@H](CCCNC(N)=O)C(=O)N1)C(N)=O` [TF5, 4F-benzoyl-Arg-Arg-Nal-Cys-Tyr-Cit-Lys-DGlu-Pro-Tyr-Arg-Cit-Cys-Arg-NH2] ({Benzoyl(4-F)}-RR[2Nal]CY[Cit]K[dE]PYR[Cit]CR-NH2; disulfide 4-13), 2.8 nM. For `N=C(N)NCCC[C@H](NC(=O)[C@@H]1CSSC[C@H](NC(=O)[C@H](Cc2ccc3ccccc3c2)NC(=O)[C@H](CCCNC(=N)N)NC(=O)[C@H](CCCNC(=N)N)NC(=O)c2ccccc2F)C(=O)N[C@@H](Cc2ccc(O)cc2)C(=O)N[C@@H](CCCNC(N)=O)C(=O)N[C@@H](CCCCN)C(=O)N[C@H](CCC(=O)O)C(=O)N2CCC[C@H]2C(=O)N[C@@H](Cc2ccc(O)cc2)C(=O)N[C@@H](CCCNC(=N)N)C(=O)N[C@@H](CCCNC(N)=O)C(=O)N1)C(N)=O` [TF6, 2F-benzoyl-Arg-Arg-Nal-Cys-Tyr-Cit-Lys-DGlu-Pro-Tyr-Arg-Cit-Cys-Arg-NH2] (X5-RR[2Nal]CY[Cit]K[dE]PYR[Cit]CR-NH2; disulfide 4-13), the IC50 turned out to be 3.9 nM. To `N=C(N)NCCC[C@H](NC(=O)[C@@H]1CSSC[C@H](NC(=O)[C@H](Cc2ccc3ccccc3c2)NC(=O)[C@H](CCCNC(=N)N)NC(=O)CCCCN)C(=O)N[C@@H](Cc2ccc(O)cc2)C(=O)N[C@@H](CCCNC(N)=O)C(=O)N[C@@H](CCCCN)C(=O)N[C@H](CCC(=O)O)C(=O)N2CCC[C@H]2C(=O)N[C@@H](Cc2ccc(O)cc2)C(=O)N[C@@H](CCCNC(=N)N)C(=O)N[C@@H](CCCNC(N)=O)C(=O)N1)C(N)=O` [TF7, APA-Arg-Nal-Cys-Tyr-Cit-Lys-DGlu-Pro-Tyr-Arg-Cit-Cys-Arg-NH2] (H-[Ava]R[2Nal]CY[Cit]K[dE]PYR[Cit]CR-NH2; disulfide 4-13) belongs 5.7 nM; to `N=C(N)NCCCCC(=O)N[C@@H](CCCNC(=N)N)C(=O)N[C@@H](Cc1ccc2ccccc2c1)C(=O)N[C@H]1CSSC[C@@H](C(=O)N[C@@H](CCCNC(=N)N)C(N)=O)NC(=O)[C@H](CCCNC(N)=O)NC(=O)[C@H](CCCNC(=N)N)NC(=O)[C@H](Cc2ccc(O)cc2)NC(=O)[C@@H]2CCCN2C(=O)[C@@H](CCC(=O)O)NC(=O)[C@H](CCCCN)NC(=O)[C@H](CCCNC(N)=O)NC(=O)[C@H](Cc2ccc(O)cc2)NC1=O` [TF8, desamino-R-Arg-Nal-Cys-Tyr-Cit-Lys-DGlu-Pro-Tyr-Arg-Cit-Cys-Arg-NH2] ({Pentanoyl(5-guanidino)}-R[2Nal]CY[Cit]K[dE]PYR[Cit]CR-NH2; disulfide 3-12), 8.2 nM; to `N=C(N)NCCC[C@H](NC(=O)[C@@H]1CSSC[C@H](NC(=O)[C@H](Cc2ccc3ccccc3c2)NC(=O)[C@H](CCCNC(=N)N)NC(=N)N)C(=O)N[C@@H](Cc2ccc(O)cc2)C(=O)N[C@@H](CCCNC(N)=O)C(=O)N[C@@H](CCCCN)C(=O)N[C@H](CCC(=O)O)C(=O)N2CCC[C@H]2C(=O)N[C@@H](Cc2ccc(O)cc2)C(=O)N[C@@H](CCCNC(=N)N)C(=O)N[C@@H](CCCNC(N)=O)C(=O)N1)C(N)=O` [TF9, guanyl-Arg-Nal-Cys-Tyr-Cit-Lys-DGlu-Pro-Tyr-Arg-Cit-Cys-Arg-NH2] (X1-[2Nal]CY[Cit]K[dE]PYR[Cit]CR-NH2; disulfide 2-11), 250 nM. For the compound `N=C(N)NCCC[C@H](NC(=O)[C@@H]1CSSC[C@H](NC(=O)[C@H](Cc2ccc3ccccc3c2)NC(=O)[C@H](CCCNC(=N)N)NC(=O)CCC(=O)O)C(=O)N[C@@H](Cc2ccc(O)cc2)C(=O)N[C@@H](CCCNC(N)=O)C(=O)N[C@@H](CCCCN)C(=O)N[C@H](CCC(=O)O)C(=O)N2CCC[C@H]2C(=O)N[C@@H](Cc2ccc(O)cc2)C(=O)N[C@@H](CCCNC(=N)N)C(=O)N[C@@H](CCCNC(N)=O)C(=O)N1)C(N)=O` [TF10, succinyl-Arg-Nal-Cys-Tyr-Cit-Lys-DGlu-Pro-Tyr-Arg-Cit-Cys-Arg-NH2] (Suc-R[2Nal]CY[Cit]K[dE]PYR[Cit]CR-NH2; disulfide 3-12), the IC50 worked out at 48 nM. To `N=C(N)NCCC[C@H](NC(=O)[C@@H]1CSSC[C@H](NC(=O)[C@H](Cc2ccc3ccccc3c2)NC(=O)[C@H](CCCNC(=N)N)NC(=O)CCCC(=O)O)C(=O)N[C@@H](Cc2ccc(O)cc2)C(=O)N[C@@H](CCCNC(N)=O)C(=O)N[C@@H](CCCCN)C(=O)N[C@H](CCC(=O)O)C(=O)N2CCC[C@H]2C(=O)N[C@@H](Cc2ccc(O)cc2)C(=O)N[C@@H](CCCNC(=N)N)C(=O)N[C@@H](CCCNC(N)=O)C(=O)N1)C(N)=O` [TF11, glutaryl-Arg-Nal-Cys-Tyr-Cit-Lys-DGlu-Pro-Tyr-Arg-Cit-Cys-Arg-NH2] (Glutaryl-R[2Nal]CY[Cit]K[dE]PYR[Cit]CR-NH2; disulfide 3-12) belongs 630 nM.
